A word on the IC50: it is the point on the concentration scale where inhibition reaches its midpoint.

The structures appear in SMILES notation. Where only a bound is given, the exact number is not on record here.

From ChEMBL document CHEMBL5614431, “Discovery of 1,3,4-oxadiazoles with slow-action activity against Plasmodium falciparum malaria parasites” (Eur J Med Chem, 2024) come the findings set out here.

Series [1] relates to Plasmodium falciparum. In words: Antimalarial activity against synchronous ring stage Plasmodium falciparum 3D7 infected in human Erythrocyte assessed as inhibition of parasite growth incubated for 96 hrs by [3H]-hypoxanthine incorporation assay. Type of series: functional, organism-based. The note with it: 3D7, Erythrocyte.
The test system of series [2] is Plasmodium falciparum. In words: Antimalarial activity against synchronous ring stage Plasmodium falciparum 3D7 infected in human Erythrocyte assessed as inhibition of parasite growth incubated for 48 hrs by [3H]-hypoxanthine incorporation assay. It counts as functional, organism-based. The note with it: 3D7, Erythrocyte.
The nature of series [3]: Selectivity ratio of IC50 for antimalarial activity against synchronous ring stage Plasmodium falciparum 3D7 infected in human Erythrocyte assessed as inhibition of parasite growth incubated for 48 hrs by [3H]-hypoxanthine incorporation assay to IC50 for antimalarial activity against synchronous ring stage Plasmodium falciparum 3D7 infected in human Erythrocyte assessed as inhibition of parasite growth incubated for 48 hrs by [3H]-hypoxanthine incorporation assay. Type of series: functional.

Series [4] can be described thus: Cytotoxicity against human NFF cells assessed as reduction in cell viability incubated for 72 hrs by SRB assay. It counts as toxicity, cell-based. (In general: The SRB assay estimates cell density from bound dye.)
Series [5] in a line: Selectivity index, ratio of IC50 for cytotoxicity against human NFF cells to IC50 for antimalarial activity against synchronous ring stage Plasmodium falciparum 3D7 infected in human Erythrocyte assessed as inhibition of parasite growth incubated for 96 hrs. Type of series: toxicity, cell-based. The note with it: read-out: Ratio IC50.

For `O=S(=O)(c1nnc(N2CCOCC2)s1)C1CCCCC1`, the IC50 in series [1] and in series [2] was greater than 50 µM in each case.

With `O=S(=O)(CC1CCCC1)c1nnc(N2CCOCC2)o1`, the IC50 in series [1] was 0.64 µM; in series [2], greater than 10 µM. Besides, the “Ratio IC50” value in series [3] is recorded as greater than 16. The half-maximal inhibitory concentration (IC50) at 72 h in series [4] is greater than 100 µM. Also, the selectivity ratio at 96 h in series [5] was greater than 158.

For `CC(C)(C)CS(=O)(=O)c1nnc(N2CCOCC2)o1`, the IC50 in series [1] is 1.34 µM; in series [2], greater than 10 µM. The “Ratio IC50” value in series [3] is given as greater than 8. The IC50 at 72 h in series [4] was greater than 100 µM. For the same compound, in series [5], the selectivity ratio at 96 h is greater than 79.

In the case of `CC1CN(c2nnc(S(=O)(=O)C3CCCCC3)o2)CCO1` (racemic), the IC50 in series [1] was 0.38 µM; in series [2] it was greater than 25 µM. In series [3], the “Ratio IC50” value is listed as greater than 66. For the same compound, the IC50 at 72 h in series [4] is greater than 100 µM. The selectivity ratio at 96 h in series [5] is greater than 263.

Turning to `O=S(=O)(c1nnc(N2CCC3(CC2)OCCO3)o1)C1CCCCC1`, the IC50 in series [1] was 0.9 µM; in series [2], greater than 50 µM. In series [3], the “Ratio IC50” value is reported as greater than 56. For the same compound, in series [4], the IC50 at 72 h was greater than 100 µM. In addition, the selectivity ratio at 96 h in series [5] is greater than 111.

Take `O=S(=O)(CC1(C(F)(F)F)CC1)c1nnc(N2CCOCC2)o1`: the IC50 in series [1] was 3.19 µM; in series [2], greater than 12.5 µM. In addition, in series [3], the “Ratio IC50” value is on record as greater than 4.

Take `O=S(=O)(CC1(C(F)(F)F)CCC1)c1nnc(N2CCOCC2)o1`: the values for the IC50 in series [1] and in series [2] were 4.3 µM and 17 µM, respectively. In series [3], the “Ratio IC50” value came to 4.

For the compound `O=S(=O)(c1nnc(N2CC3(CCOCC3)C2)o1)C1CCCCC1`, the IC50 in series [1] was 0.11 µM; in series [2] it was greater than 50 µM. For the same compound, in series [3], the “Ratio IC50” value was greater than 476. Besides, the IC50 at 72 h in series [4] is greater than 100 µM. Also, in series [5], the selectivity ratio at 96 h is greater than 909.

With `CN1CCN(c2nnc(S(=O)(=O)C3CCCCC3)o2)CC1`, the IC50 was 5.4 µM in series [1] and greater than 100 µM in series [2]. Further, the “Ratio IC50” value in series [3] is recorded as greater than 19.

Consider `CCOC(=O)C1CCCN(c2nnc(S(=O)(=O)C3CCCCC3)o2)C1` (racemic), for which the figures for the IC50 in series [1] and in series [2] were 0.93 µM and greater than 25 µM, respectively. Besides, the “Ratio IC50” value in series [3] is greater than 27. For the same compound, the IC50 at 72 h in series [4] was greater than 100 µM. Further, the selectivity ratio at 96 h in series [5] is greater than 111.

Consider `CC1(C)CCCN(c2nnc(S(=O)(=O)C3CCCCC3)o2)C1`, for which the 50% inhibitory concentration (IC50) in series [1] came out at 0.04 µM; in series [2] it was 21.1 µM. Besides, in series [3], the “Ratio IC50” value came to 527. Also, the IC50 at 72 h in series [4] is greater than 100 µM. Besides, the selectivity ratio at 96 h in series [5] was greater than 2500.

With `O=S(=O)(c1nnc(N2C3CCC2CC3)o1)C1CCCCC1`, the IC50 in series [1] stood at 0.83 µM; in series [2], 5.76 µM. Moreover, the “Ratio IC50” value in series [3] is recorded as 7. The IC50 at 72 h in series [4] was determined as 33.5 µM. Besides, in series [5], the selectivity ratio at 96 h was determined as 40.

For `COC1CCN(c2nnc(S(=O)(=O)C3CCCCC3)o2)CC1`, the IC50 in series [1] was 0.69 µM; in series [2] it was greater than 50 µM. The “Ratio IC50” value in series [3] is on record as greater than 72. Moreover, in series [4], the IC50 at 72 h is greater than 100 µM. In series [5], the selectivity ratio at 96 h was greater than 145.

In the case of `O=S(=O)(c1nnc(N2CCCOCC2)o1)C1CCCCC1`, the IC50 in series [1] is 0.75 µM; in series [2], greater than 100 µM. In addition, the “Ratio IC50” value in series [3] is listed as greater than 134. In addition, in series [4], the concentration for half-maximal inhibition (IC50) at 72 h is greater than 100 µM. The selectivity ratio at 96 h in series [5] was greater than 133.

Take `O=S(=O)(c1nnc(N2CCCC2)o1)C1CCCCC1`: the IC50 was 3.53 µM in series [1] and greater than 50 µM in series [2]. Moreover, the “Ratio IC50” value in series [3] was greater than 14. Also, the IC50 at 72 h in series [4] was greater than 100 µM. Moreover, the selectivity ratio at 96 h in series [5] was greater than 28.

Turning to `O=S(=O)(c1nnc(N2CCCCO2)o1)C1CCCCC1`, the IC50 in series [1] amounted to 18.4 µM; in series [2], 8.24 µM. In addition, the “Ratio IC50” value in series [3] is 0.4.

With `O=S1(=O)CCN(c2nnc(S(=O)(=O)C3CCCCC3)o2)CC1`, the results for the IC50 in series [1] and in series [2] were 6.75 µM and greater than 25 µM, respectively. Besides, the “Ratio IC50” value in series [3] is greater than 4.

Take `N#CC1CCN(c2nnc(S(=O)(=O)C3CCCCC3)o2)CC1`: the IC50 in series [1] is 0.49 µM; in series [2], greater than 10 µM. The “Ratio IC50” value in series [3] is given as greater than 21. In addition, the IC50 at 72 h in series [4] was greater than 100 µM. Besides, the selectivity ratio at 96 h in series [5] is greater than 200.

`CC(C)(C)OC(=O)N1CCC(S(=O)(=O)c2nnc(N3CCOCC3)o2)CC1`: the values for the IC50 in series [1] and in series [2] were 5.05 µM and greater than 25 µM, respectively. In series [3], the “Ratio IC50” value is on record as greater than 5. Further, in series [4], the IC50 at 72 h was greater than 100 µM. Besides, the selectivity ratio at 96 h in series [5] was greater than 20.

Turning to `O=S(=O)(c1nnc(N2CC3CC2CO3)o1)C1CCCCC1` (racemic), the figures for the IC50 in series [1] and in series [2] were 1.58 µM and greater than 50 µM, respectively. Besides, the “Ratio IC50” value in series [3] is given as greater than 32. In series [4], the IC50 at 72 h is greater than 100 µM. Besides, the selectivity ratio at 96 h in series [5] is greater than 63.

Consider `CC(C)(C)OC(=O)[C@@H]1CCCN1c1nnc(S(=O)(=O)C2CCCCC2)o1`, for which the half-maximal inhibitory concentration (IC50) was 2.65 µM in series [1] and greater than 25 µM in series [2]. In series [3], the “Ratio IC50” value is reported as greater than 9. In addition, in series [4], the IC50 at 72 h was greater than 100 µM. Also, the selectivity ratio at 96 h in series [5] was greater than 38.

On to `Cc1ccc(C)c(CSc2nnc(N3CCOCC3)o2)c1`, for which the IC50 in series [1] and in series [2] was greater than 50 µM throughout.

On to `O=S(=O)(c1nnc(N2CCc3ccccc32)o1)C1CCCCC1`, for which the IC50 in series [1] was 1.12 µM; in series [2], greater than 10 µM. For the same compound, the “Ratio IC50” value in series [3] is on record as greater than 9. Also, the IC50 at 72 h in series [4] is greater than 25 µM. The selectivity ratio at 96 h in series [5] is greater than 26.

For the compound `Cl.O=S(=O)(c1nnc(N2CCOCC2)o1)C1CCNCC1`, the IC50 in series [1] and in series [2] was greater than 50 µM in each case. Besides, the “Ratio IC50” value in series [3] is recorded as 1.

As for `O=S(=O)(c1nnc(N2CCOCC2)o1)C1CCCC1`, the IC50 in series [1] is 5.82 µM; in series [2] it was greater than 50 µM. The “Ratio IC50” value in series [3] was greater than 9.

In the case of `CC1(C)CN(c2nnc(S(=O)(=O)C3CCCCC3)o2)CCO1`, the results for the IC50 in series [1] and in series [2] were 0.24 µM and greater than 25 µM, respectively. Also, in series [3], the “Ratio IC50” value is listed as greater than 105. Further, the half-inhibitory concentration (IC50) at 72 h in series [4] was greater than 100 µM. Also, in series [5], the selectivity ratio at 96 h is greater than 417.

With `O=S(=O)(c1nnc(N2CCC(c3ccccc3)CC2)o1)C1CCCCC1`, the results for the IC50 in series [1] and in series [2] were 13.5 µM and greater than 100 µM, respectively. In series [3], the “Ratio IC50” value is given as greater than 7.

`Cc1ccc(C)c(C[S+]([O-])c2nnc(N3CCOCC3)o2)c1` (stereo unspecified): the IC50 amounted to 13.7 µM in series [1] and 16.8 µM in series [2]. Moreover, the “Ratio IC50” value in series [3] is reported as 1.

Turning to `CC(C)(C)OC(=O)N1CCN(c2nnc(S(=O)(=O)C3CCCCC3)o2)CC1`, the IC50 was 2.73 µM in series [1] and greater than 50 µM in series [2]. Further, in series [3], the “Ratio IC50” value was greater than 18.

In the case of `O=S(=O)(Cc1ccc(Cl)c(Cl)c1)c1nnc(N2CCOCC2)o1`, the figures for the IC50 in series [1] and in series [2] were 4.2 µM and 6.6 µM, respectively. Moreover, the “Ratio IC50” value in series [3] worked out at 1.6.

With `O=S(=O)(c1nnc(N2CCNCC2)o1)C1CCCCC1`, the IC50 in series [1] is 3.58 µM; in series [2] it was 57.9 µM. Also, the “Ratio IC50” value in series [3] came out at 16.

For `O=S(=O)(c1ccc(Cl)c(Cl)c1)c1nnc(N2CCOCC2)o1`, the figures for the IC50 in series [1] and in series [2] were 24.6 µM and 13.1 µM, respectively. Also, the “Ratio IC50” value in series [3] is listed as 0.5.

On to `O=S(=O)(c1nnc(N2CCN(CC(F)(F)F)CC2)o1)C1CCCCC1`, for which the IC50 in series [1] was 2.35 µM; in series [2] it was greater than 25 µM. Moreover, the “Ratio IC50” value in series [3] was greater than 11.
